Converted amounts (≈) assume the structure as drawn. Read-outs that look alike come from different tables or passages of the source.
Legend:
Cn MRL862 = format: cell-based, Cryptococcus neoformans; settings: RPMI1640, 37 °C, 48 h
Method: (§1) All microdilution assays with fungi were carried out in accordance with CLSI protocols from M27 for yeasts and M38 for filamentous fungi, respectively, unless otherwise specified.[64],[65] Briefly, 96-well plates were charged with RPMI1640 media, with operating volume in the first column, 200 μL, and half operating volume, 100 μL, in the remaining wells. Drug stock solution in DMSO was aliquoted into the first well in each row. Half of the volume in the dosed well was serially diluted 2-fold until column 11. Column 11 was used as the negative growth control, and column 12 was used as the positive growth control. ON yeast cultures in YPD were washed twice in DD-H2O, resuspended in PBS, and adjusted to 5000 cfu/mL in RPMI. The 96-well plate was inoculated with 100 μL aliquots of cell suspension per well. Plates were incubated at 37 °C for 2 days.
(§2) To assess drug synergy, the initial media charged to the plate contained the peptide at twice the final operating concentration; the remaining processing steps were identical to the MIC experiment. Upon addition of 100 μL of inoculant, the final operating concentration was achieved. Control MIC plates were prepared alongside drug synergy plates to account for the day-to-day variability in any individual MIC. FIC index is computed using eq 1. All MIC assays and drug synergy assays were completed with two technical replicates per 96-well plate and a minimum of two biological replicates per drug combination. If a difference in MIC between the two technical replicates on the plate were observed, only the higher concentration was reported as the MIC to reduce the possibility of type 1 error (false positive) [drawing 1] 1

Cn Crm1-oe = experiment: microbe, parasite or virus in culture; format: cell-based, Cryptococcus neoformans; settings: Cryptococcus neoformans, CRM1OE, 48 h, 37 °C
Method: (§3) Previous studies have shown that modifying microbiological media with salts such as CaCl2 can have a drastic effect on the growth of fungi and their responses to antifungals.[19],[35] In the case of CaCl2, the divalent cation, Ca^2+, is involved in fungal cell stress response. To understand how the peptide activity may involve calcium and stress response, the MICs of KKOO, KKOO-NH2, FLC, and CAS were assessed as a function of the calcium concentration in liquid YPD media. It was observed that calcium enrichment completely desensitized the wild-type strain to KKOO and KKOO-NH2, Tables 7 and 8, respectively. Effects of calcium enrichment on the susceptibility of Cryptococcus to CAS similar to literature values were recorded, Supporting Information, Table S7.[35]
as §1

Cn crm1Δ = experiment: microbe, parasite or virus in culture; format: cell-based, Cryptococcus neoformans; settings: Cryptococcus neoformans, 48 h, 37 °C
Method: as §3, §1

Cn apt1Δ = experiment: microbe, parasite or virus in culture; format: cell-based, Cryptococcus neoformans; settings: Cryptococcus neoformans, 48 h, 37 °C, 48 h
Method: as §3, §1

C. auris B11245 [1] = format: cell-based, Candida auris; settings: for MIC of antifungal in combination with KKOO / MIC of antifungal in combination with KKOO-NH2: RPMI1640, 37 °C, 48 h, CAS: paradoxical growth; for MIC of antifungal in combination with KKOO: MIC = <20% growth; for MIC of antifungal in combination with KKOO-NH2: MIC = well with <20% growth
Method: as §1, §2

Cn cdc50Δ = experiment: microbe, parasite or virus in culture; format: cell-based, Cryptococcus neoformans; settings: 48 h, 37 °C, 48 h
Method: as §3
(§4) In order to control for the effects of enriching YPD with a divalent cation, MICs and ROS production were also measured as a function of the MgCl2 supplement at the same millimolar concentrations of cation as in the CaCl2-modified experiments. […] No peptide susceptibility changes were observed against Cn cdc50Δ in magnesium-enriched media, Table S9. ROS production in H99 induced by peptide exposure was inhibited after 30 min of treatment in the magnesium-enriched condition, similar to the levels observed in the calcium-enriched media at 16 μg/mL KKOO-NH2, Figure S1. […] The link between peptide activity and calcium homeostasis may be vital in understanding precisely how the peptide kills fungal cells and requires more research to elucidate.
as §1

Cn H99 = experiment: microbe, parasite or virus in culture; format: cell-based, Cryptococcus neoformans; settings: Cryptococcus neoformans, H99, 48 h, 37 °C, 48 h, read-out: MIC
Method: as §3, §4, §1

A. fumigatus AF293 = experiment: microbe, parasite or virus in culture; format: cell-based, Aspergillus fumigatus; settings: Aspergillus fumigatus, AF293, 48 h
Method: as §1

C. glabrata FKS1-S629P = experiment: microbe, parasite or virus in culture; format: cell-based, Candida glabrata; settings: Nakaseomyces glabratus, FKS1S629P, 48 h
Outline: (§5)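 Yeasts were grown overnight in YPD, washed twice in water, taken up in PBS and diluted to 5000 cfu/mL in RPMI. They were then added to plates holding 2-fold serial drug dilutions in RPMI1640 and incubated at 37 °C for 2 days.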

C. glabrata 2001 = experiment: microbe, parasite or virus in culture; format: cell-based, Candida glabrata; settings: Nakaseomyces glabratus, 2001; compound alone; RPMI1640, 37 °C, 48 h; read-out: MIC
Outline: as §5

C. glabrata FKS2-S663P = experiment: microbe, parasite or virus in culture; format: cell-based, Candida glabrata; settings: Nakaseomyces glabratus, FKS2S663P, 48 h
Outline: as §5

C. auris B11245 [2] = experiment: microbe, parasite or virus in culture; format: cell-based, Candida auris; settings: Candidozyma auris, B11245; compound alone; RPMI1640, 37 °C, 48 h; * = paradoxical growth observed (CAS); read-out: MIC
Method: as §1

CC[C@H](C)C[C@H](C)CCCCCCCCC(=O)N[C@H]1C[C@@H](O)[C@@H](NCCN)NC(=O)[C@@H]2[C@@H](O)CCN2C(=O)[C@H]([C@H](O)CCN)NC(=O)[C@H]([C@H](O)[C@@H](O)c2ccc(O)cc2)NC(=O)[C@@H]2C[C@@H](O)CN2C(=O)[C@H]([C@@H](C)O)NC1=O [CAS, caspofungin]
MIC of antifungal in combination with KKOO (Cn MRL862; +0 μg/mL KKOO (control)): 16 µg/mL
MIC of antifungal in combination with KKOO-NH2 (Cn MRL862; +0 μg/mL KKOO-NH2 (control)): 16 µg/mL
MIC of antifungal in combination with KKOO-NH2 (Cn MRL862; +1 μg/mL KKOO-NH2): 16 µg/mL
MIC of antifungal in combination with KKOO (Cn MRL862; +1 μg/mL KKOO): 16 µg/mL
MIC of antifungal in combination with KKOO-NH2 (Cn MRL862; +2 μg/mL KKOO-NH2): 8 µg/mL
MIC of antifungal in combination with KKOO (Cn MRL862; +2 μg/mL KKOO): 16 µg/mL
MIC of antifungal in combination with KKOO-NH2 (Cn MRL862; +4 μg/mL KKOO-NH2): 4 µg/mL
MIC of antifungal in combination with KKOO (Cn MRL862; +4 μg/mL KKOO): 8 µg/mL
MIC (Cn Crm1-oe; YPD + 0 mM Ca2+): 8 µg/mL
MIC (Cn Crm1-oe; YPD + 2.5 mM Ca2+): 32 µg/mL
MIC (Cn Crm1-oe; YPD + 5 mM Ca2+): 32 µg/mL
MIC (Cn Crm1-oe; YPD + 10 mM Ca2+): 128 µg/mL
MIC (Cn Crm1-oe; YPD + 20 mM Ca2+): 128 µg/mL
MIC (Cn crm1Δ; YPD + 0 mM Ca2+): 8 µg/mL
MIC (Cn crm1Δ; YPD + 2.5 mM Ca2+): 32 µg/mL
MIC (Cn crm1Δ; YPD + 5 mM Ca2+): 32 µg/mL
MIC (Cn crm1Δ; YPD + 10 mM Ca2+): 64 µg/mL
MIC (Cn crm1Δ; YPD + 20 mM Ca2+): > 128 µg/mL
MIC (Cn apt1Δ; YPD + 0 mM Ca2+): 8 µg/mL
MIC (Cn apt1Δ; YPD + 2.5 mM Ca2+): 16 µg/mL
MIC (Cn apt1Δ; YPD + 5 mM Ca2+): 32 µg/mL
MIC (Cn apt1Δ; YPD + 10 mM Ca2+): 32 µg/mL
MIC (Cn apt1Δ; YPD + 20 mM Ca2+): 64 µg/mL
MIC of antifungal in combination with KKOO (C. auris B11245 [1]; +0 μg/mL KKOO (control)): 1 µg/mL
MIC of antifungal in combination with KKOO-NH2 (C. auris B11245 [1]; +0 μg/mL KKOO-NH2 (control)): 1 µg/mL
MIC of antifungal in combination with KKOO-NH2 (C. auris B11245 [1]; +1 μg/mL KKOO-NH2): 0.5 µg/mL
MIC of antifungal in combination with KKOO (C. auris B11245 [1]; +1 μg/mL KKOO): 1 µg/mL
MIC of antifungal in combination with KKOO-NH2 (C. auris B11245 [1]; +2 μg/mL KKOO-NH2): 0.125 µg/mL
MIC of antifungal in combination with KKOO (C. auris B11245 [1]; +2 μg/mL KKOO): 0.25 µg/mL
MIC of antifungal in combination with KKOO-NH2 (C. auris B11245 [1]; +4 μg/mL KKOO-NH2): 0.031 µg/mL
MIC of antifungal in combination with KKOO (C. auris B11245 [1]; +4 μg/mL KKOO): 0.031 µg/mL
reduction of MIC of antifungal (C. auris B11245 [1]; in the presence of 2 μg/mL KKOO-NH2, 48 h): 8 fold
MIC (Cn cdc50Δ; Cryptococcus neoformans, YPD + 0 mM Ca2+): 4 µg/mL
MIC (Cn cdc50Δ; Cryptococcus neoformans, YPD + 2.5 mM Ca2+): 8 µg/mL
MIC (Cn cdc50Δ; Cryptococcus neoformans, YPD + 5 mM Ca2+): 16 µg/mL
MIC (Cn cdc50Δ; Cryptococcus neoformans, YPD + 10 mM Ca2+): 32 µg/mL
MIC (Cn cdc50Δ; Cryptococcus neoformans, YPD + 20 mM Ca2+): 8 µg/mL
MIC (Cn cdc50Δ; YPD + 0 mM Mg2+, unit inferred): 4 µg/mL
MIC (Cn cdc50Δ; YPD + 2.5 mM Mg2+, unit inferred): 8 µg/mL
MIC (Cn cdc50Δ; YPD + 5 mM Mg2+, unit inferred): 8 µg/mL
MIC (Cn cdc50Δ; YPD + 10 mM Mg2+, unit inferred): 8 µg/mL
MIC (Cn cdc50Δ; YPD + 20 mM Mg2+, unit inferred): 8 µg/mL
MIC (Cn H99; YPD + 0 mM Ca2+): 8 µg/mL
MIC (Cn H99; YPD + 0 mM Mg2+): 8 µg/mL
MIC (Cn H99; YPD + 2.5 mM Ca2+): 16 µg/mL
MIC (Cn H99; YPD + 2.5 mM Mg2+): 16 µg/mL
MIC (Cn H99; YPD + 5 mM Ca2+): 32 µg/mL
MIC (Cn H99; YPD + 5 mM Mg2+): 16 µg/mL
MIC (Cn H99; YPD + 10 mM Ca2+): 64 µg/mL
MIC (Cn H99; YPD + 10 mM Mg2+): 32 µg/mL
MIC (Cn H99; YPD + 20 mM Mg2+): 64 µg/mL
MIC (A. fumigatus AF293): 0.125 µg/mL (≈ 0.114 µM)
MIC (C. glabrata FKS1-S629P): 2 µg/mL (≈ 1.83 µM)
MIC (C. glabrata 2001): 0.5 µg/mL (≈ 0.457 µM)
MIC (C. glabrata FKS2-S663P): 4 µg/mL (≈ 3.66 µM)
MIC (C. auris B11245 [2]): 1 µg/mL (≈ 0.915 µM)
